Source: patent US12286488B2, “Anti-dinitolmide monoclonal antibodies and hybridoma cell strain that secretes them” (JIANGNAN UNIVERSITY, priority 2020, dated 2025)
≈ marks a conversion by molar mass, not a printed value.

System: anti-dinitolmide monoclonal antibody secreted by hybridoma cell strain DAS3H10
Experiment: indirect competitive ELISA (IC50 and cross-reaction rates)
Format: binding, mouse
Details: for IC50: dinitolmide monoclonal antibody; for cross-reaction rates: relative to dinitolmide
Text: The basic steps for the preparation of the DAS3H10 cell line provided by the invention are: • (1) Preparation and identification of immunogen: 3,5-dinitro-2-methylbenzoic acid, which is a structure analogue of dinitolmide, was used as a raw material and connected to the amino group of the protein carrier with the activated ester method. After the reaction was completed, the complete immunogen and the unconnected small molecule hapten were separated by dialysis. And the complete immunogen was identified by UV-VIS absorption spectrometry. • (2) Immunization of mice: BALB/c mice aged 6-8 weeks were selected for immunization. The immunogen, which was emulsified with […], was injected to the BALB/c mice by subcutaneous injection at multiple points. The Faust complete adjuvant was used for the first immunization, the Faust incomplete adjuvant was used for the booster immunization, and the commixture of the immunogen and normal saline was used for the sprint immunization by intraperitoneal injection. Each immunization dose was half of the previous immunization dose, and the interval between each immunization was three weeks. After the third immunization, blood collection was collected every one week for the detection of serum titer and inhibition. • (3) Cell fusion and cell line establishment: the cell fusion of mouse spleen cells and mouse myeloma cells was accomplished by polyethylene glycol (PEG 2000). After cultured culturing in HAT medium, there was detection of positive cells wells by indirect ELISA, and further detection of the inhibition effect of positive cell wells by indirect competition ELISA. Positive cell wells with the best inhibition effect were subcloned three times by limiting dilution assay, and finally the hybridoma cell strain DAS3H10 was finally screened. • (4) Identification of the properties of hybridoma cell strains: the identification of hybridoma cell strains were determined by HRP, and IC50, cross-reaction rates and affinity were determined by ELISA.
4. Cell screening and cell line establishment: during the cell fusion, half of the RPMI-1640 screening medium of the fusion cell was changed on the 3rd day, and all was replaced by the RPMI-1640 screening medium with 20% fetal bovine serum, 1% of 100×HT on the fifth day. The cell supernatant was used for screening on the 7th day, which is divided into two steps: the first step is to screen out the positive cell wells with indirect ELISA, the second step is to detect the inhibition effect of positive cell wells by indirect competition ELISA with dinitolmide used as the standard substance. The cell wells with good inhibition effect of dinitrotolamine were selected to be subcloned with finite dilution assay, and the inhibition effect was detected in the same way. This process was repeated three times to obtain the cell line.
6. […] Each sample was added to 3 wells. […]

| Molecule | IC50 | cross-reaction rates |
| --- | --- | --- |
| Cc1cc(-n2c(=O)[nH]c(=O)n(C)c2=O)ccc1Oc1ccc(SC(F)(F)F)cc1 [torquoly] | >0.5 µg/mL | <5% |
| N#CC(c1ccc(Cl)cc1)c1c(Cl)cc(-n2ncc(=O)[nH]c2=O)cc1Cl (centres unmarked) [dikjuli] | >0.5 µg/mL | <5% |
| Cc1c(C(N)=O)cc([N+](=O)[O-])cc1[N+](=O)[O-] [dinitolmide] | 0.00901 µg/mL (≈ 0.04 µM) | 100% |
| nicarbazine | >0.5 µg/mL | <5% |
